Assay results reported in a compilation of properties of binary mixtures (doi:10.1021/jp5065243).

Experiment: xn = mol fraction of the nth substance listed
Details: 101 kPa

CCCC[N+](C)(C)C.O=S(=O)([N-]S(=O)(=O)C(F)(F)F)C(F)(F)F + CC(O)CO
viscosity [mPa·s]
Details	x2 = 0	x2 = 0.132	x2 = 0.1909	x2 = 0.3054	x2 = 0.5274	x2 = 0.7262	x2 = 0.8149	x2 = 0.8843
323.15 K	–	25.2	22.8	19.6	15.85	14.66	12.95	–
328.15 K	30	21.4	–	16.72	13.36	12.33	10.63	9.67
333.15 K	25.7	18.4	16.53	–	11.41	10.46	8.85	8.04
338.15 K	–	15.98	14.01	–	–	8.91	–	6.68
343.15 K	–	13.99	12.36	10.89	8.6	7.59	6.35	5.62
348.15 K	–	12.65	–	9.89	–	6.68	–	4.96
353.15 K	15.63	11.91	10.8	9.3	7.51	6.1	–	4.62

C[N+](C)(C)CCO.O=S(=O)([N-]S(=O)(=O)C(F)(F)F)C(F)(F)F + CC(O)CO
viscosity [mPa·s]
Details	313.15 K	318.15 K	323.15 K	328.15 K	333.15 K	338.15 K	343.15 K	348.15 K	353.15 K
x2 = 0	–	46.8	39.3	33.4	–	–	21.6	–	16.9
x2 = 0.2189	37.3	31.1	26.2	22.3	19.2	16.54	–	12.98	11.55
x2 = 0.3834	31.1	26.2	21.7	18.6	15.87	13.73	–	10.65	9.42
x2 = 0.4786	–	–	19.8	16.76	14.37	12.63	10.88	9.6	8.48
x2 = 0.5867	26.7	21.9	18.2	–	13.15	11.34	9.88	8.68	7.67
x2 = 0.7668	22	17.9	14.79	12.4	10.52	9.01	7.78	6.77	5.91
x2 = 0.8744	19.7	15.95	13.08	10.84	9.12	7.72	–	5.69	4.91

CC(O)CO (configuration not stated) + C[N+](C)(C)CCO.O=S(=O)([N-]S(=O)(=O)C(F)(F)F)C(F)(F)F
x1 = 1
Details	viscosity [mPa·s]
313.15 K	19.1
318.15 K	15.17
323.15 K	12.2
328.15 K	9.85
333.15 K	8
338.15 K	6.4
343.15 K	5.27
348.15 K	4.5
353.15 K	3.78

CCCC[N+](C)(C)C.O=S(=O)([N-]S(=O)(=O)C(F)(F)F)C(F)(F)F + CC(O)C(C)O
x2 = 0
Details	viscosity [mPa·s]
323.15 K	35.6
333.15 K	25.7
338.15 K	22.1
343.15 K	19.2

OCCCO + C[N+](C)(C)CCO.O=S(=O)([N-]S(=O)(=O)C(F)(F)F)C(F)(F)F
x1 = 1
Details	viscosity [mPa·s]
313.15 K	20.3
318.15 K	16.88
323.15 K	14.16
328.15 K	12.01
333.15 K	10.24
343.15 K	7.47
348.15 K	6.62
353.15 K	5.8

C[N+](C)(C)CCO.O=S(=O)([N-]S(=O)(=O)C(F)(F)F)C(F)(F)F + OCCCO
viscosity [mPa·s]
Details	313.15 K	318.15 K	323.15 K	328.15 K	333.15 K	338.15 K	343.15 K	348.15 K	353.15 K
x2 = 0	56.4	–	39.3	–	28.6	24.6	21.6	–	16.9
x2 = 0.1272	–	39.1	32.8	27.9	–	20.8	18.1	16	14.19
x2 = 0.2297	39.8	33.1	27.9	23.8	–	–	–	13.8	12.29
x2 = 0.4106	–	25.1	21.2	18.1	15.6	13.62	11.96	10.58	9.49
x2 = 0.5712	–	20.8	17.5	14.95	12.87	11.18	9.79	–	7.65
x2 = 0.6946	22.2	18.4	15.47	13.14	–	–	8.51	7.46	6.58
x2 = 0.8367	20.4	16.91	–	–	10.27	8.86	7.74	6.78	–
x2 = 0.9474	19.5	16.22	13.62	11.54	9.86	–	7.36	6.39	5.57

CC(O)CO (configuration not stated) + CCCC[N+](C)(C)C.O=S(=O)([N-]S(=O)(=O)C(F)(F)F)C(F)(F)F
x1 = 1
Details	viscosity [mPa·s]
323.15 K	12.2
328.15 K	9.85
333.15 K	8
338.15 K	6.41
343.15 K	5.27
348.15 K	4.54

OCCCCCO + C[N+](C)(C)CCO.O=S(=O)([N-]S(=O)(=O)C(F)(F)F)C(F)(F)F
x1 = 1
Details	viscosity [mPa·s]
313.15 K	45.6
318.15 K	36.9
323.15 K	29.8
328.15 K	24.5
338.15 K	16.84
343.15 K	14.44

CC(O)C(C)O (configuration not stated) + CCCC[N+](C)(C)C.O=S(=O)([N-]S(=O)(=O)C(F)(F)F)C(F)(F)F
viscosity [mPa·s]
Details	x1 = 0.0879	x1 = 0.3137	x1 = 0.4515	x1 = 0.557	x1 = 0.6216	x1 = 0.8142	x1 = 1
323.15 K	28.8	20.9	18.2	–	–	15.29	17
328.15 K	24.4	17.7	15.32	–	13.26	12.34	13.13
333.15 K	20.9	–	–	–	11.09	10.19	10.34
338.15 K	18.1	13.22	11.32	10	9.39	8.53	8.27
343.15 K	15.83	11.16	9.89	8.68	8.03	7.33	–

C[N+](C)(C)CCO.O=S(=O)([N-]S(=O)(=O)C(F)(F)F)C(F)(F)F + OCCCCCO
viscosity [mPa·s]
Details	x2 = 0	x2 = 0.1351	x2 = 0.2149	x2 = 0.4145	x2 = 0.5087	x2 = 0.6847	x2 = 0.7858	x2 = 0.9071
313.15 K	56.4	49.5	45.2	38.4	37	36.8	37.8	40.8
318.15 K	46.8	40.8	–	31.4	30.2	29.7	30.3	32.9
323.15 K	–	34.2	–	26.1	24.9	24.3	24.7	26.8
328.15 K	33.4	28.9	–	22	20.9	20.2	20.2	22
333.15 K	28.6	24.7	–	18.7	17.7	17	16.86	18.3
338.15 K	24.6	21.3	19.5	–	15.17	14.44	14.12	15.4
343.15 K	21.6	18.6	17	13.98	13.08	–	11.92	12.99

CCC(O)CO (configuration not stated) + CCCC[N+](C)(C)C.O=S(=O)([N-]S(=O)(=O)C(F)(F)F)C(F)(F)F
x1 = 1
Details	viscosity [mPa·s]
323.15 K	12.85
333.15 K	8.33
338.15 K	6.83
343.15 K	5.65
348.15 K	4.75
353.15 K	4.03

CCCC[N+](C)(C)C.O=S(=O)([N-]S(=O)(=O)C(F)(F)F)C(F)(F)F + CCC(O)CO
viscosity [mPa·s]
Details	323.15 K	328.15 K	333.15 K	338.15 K	343.15 K	348.15 K	353.15 K
x2 = 0	35.6	–	25.7	22.1	19.2	16.81	15.63
x2 = 0.2291	22.5	19.1	16.35	–	–	10.93	10.09
x2 = 0.3543	19.1	16.13	13.78	–	10.4	9.13	8.39
x2 = 0.5116	16.9	14.18	12.01	10.29	8.9	7.77	–
x2 = 0.6289	–	13.27	11.03	9.35	8.1	–	6.33
x2 = 0.8622	13.55	10.93	8.96	7.44	6.26	5.32	–
x2 = 0.9031	13.23	10.7	8.68	7.12	5.98	5.19	4.58
